Measurements reported in ChEMBL document CHEMBL4613312, “Predictive Gene Signature for Pyrazolopyrimidine Derivative c-Src Inhibitor 10a Sensitivity in Melanoma Cells” (ACS Med Chem Lett, 2020).
pIC50: −log10 of the molar value. Activity calls are given as the source filed them.

Key:
[1] = Cytotoxicity against human M1 cells assessed as reduction in cell viability measured after 72 hrs by Celltiter-Glo luminescent assay; type: functional, cell-based
[2] = Chemosensitization activity in human M221 cells assessed as reduction in cell viability at 20 uM measured after 72 hrs in presence of 200 nM sodium valproate by Celltiter-Glo luminescent assay relative to control; type: functional
M34 [3] = experiment: Downregulation of XRCC5 mRNA level in human M34 cells by SYBR-green dye based qRT-PCR analysis; type: functional, cell-based
Homo sapiens [4] = organism: Homo sapiens; experiment: Downregulation of NSUN5 mRNA level in human M221 cells by SYBR-green dye based qRT-PCR analysis; type: functional, cell-based
Homo sapiens [5] = organism: Homo sapiens; experiment: Upregulation of TMED7 mRNA level in human M193 cells by SYBR-green dye based qRT-PCR analysis; type: functional, cell-based
Homo sapiens [6] = organism: Homo sapiens; experiment: Downregulation of XRCC5 mRNA level in human M433 cells by SYBR-green dye based qRT-PCR analysis; type: functional, cell-based
Homo sapiens [7] = organism: Homo sapiens; experiment: Downregulation of XRCC5 mRNA level in human M193 cells by SYBR-green dye based qRT-PCR analysis; type: functional, cell-based
[8] = Cytotoxicity against human M7 cells assessed as reduction in cell viability measured after 72 hrs by Celltiter-Glo luminescent assay; type: functional, cell-based
[9] = Chemosensitization activity in human M193 cells assessed as reduction in cell viability at 20 uM measured after 72 hrs in presence of 4 mM sodium valproate by Celltiter-Glo luminescent assay relative to control; type: functional
[10] = Cytotoxicity against human M189 cells assessed as reduction in cell viability measured after 72 hrs by Celltiter-Glo luminescent assay; type: functional, cell-based
[11] = Chemosensitization activity in human M221 cells assessed as reduction in cell viability at 20 uM measured after 72 hrs in presence of 50 nM sodium valproate by Celltiter-Glo luminescent assay relative to control; type: functional
[12] = Cytotoxicity against human M144 cells assessed as reduction in cell viability measured after 72 hrs by Celltiter-Glo luminescent assay; type: functional, cell-based
Homo sapiens [13] = organism: Homo sapiens; experiment: Downregulation of NSUN5 mRNA level in human M433 cells by SYBR-green dye based qRT-PCR analysis; type: functional, cell-based
[14] = Cytotoxicity against human M193 cells assessed as reduction in cell viability measured after 72 hrs by Celltiter-Glo luminescent assay; type: functional, cell-based
Homo sapiens [15] = organism: Homo sapiens; experiment: Upregulation of PLOD2 mRNA level in human M193 cells by SYBR-green dye based qRT-PCR analysis; type: functional, cell-based
[16] = Cytotoxicity against human M307 cells assessed as reduction in cell viability measured after 72 hrs by Celltiter-Glo luminescent assay; type: functional, cell-based
[17] = Synergistic cytotoxicity against human M193 cells assessed as combination index at 20 uM measured after 72 hrs in presence of 0.8 mM sodium valproate by Celltiter-Glo luminescent assay based Chou-Talalay method; type: functional
Homo sapiens [18] = organism: Homo sapiens; experiment: Downregulation of XRCC5 mRNA level in human M221 cells by SYBR-green dye based qRT-PCR analysis; type: functional, cell-based
[19] = Cytotoxicity against human M433 cells assessed as reduction in cell viability measured after 72 hrs by Celltiter-Glo luminescent assay; type: functional, cell-based
Homo sapiens [20] = organism: Homo sapiens; experiment: Downregulation of XRCC5 mRNA level in human M2025 cells by SYBR-green dye based qRT-PCR analysis; type: functional, cell-based
Homo sapiens [21] = organism: Homo sapiens; experiment: Upregulation of TMED7 mRNA level in human M221 cells by SYBR-green dye based qRT-PCR analysis; type: functional, cell-based
Homo sapiens [22] = organism: Homo sapiens; experiment: Upregulation of PLOD2 mRNA level in human M221 cells by SYBR-green dye based qRT-PCR analysis; type: functional, cell-based
Homo sapiens [23] = organism: Homo sapiens; experiment: Upregulation of TMED7 mRNA level in human M433 cells by SYBR-green dye based qRT-PCR analysis; type: functional, cell-based
[24] = Cytotoxicity against human M2025 cells assessed as reduction in cell viability measured after 72 hrs by Celltiter-Glo luminescent assay; type: functional, cell-based
[25] = Cytotoxicity against human SHM20A2 cells assessed as reduction in cell viability measured after 72 hrs by Celltiter-Glo luminescent assay; type: functional, cell-based
[26] = Synergistic cytotoxicity against human M193 cells assessed as combination index at 20 uM measured after 72 hrs in presence of 6 mM sodium valproate by Celltiter-Glo luminescent assay based Chou-Talalay method; type: functional
M34 [27] = experiment: Downregulation of NSUN5 mRNA level in human M34 cells by SYBR-green dye based qRT-PCR analysis; type: functional, cell-based
[28] = Cytotoxicity against human M221 cells assessed as reduction in cell viability measured after 72 hrs by Celltiter-Glo luminescent assay; type: functional, cell-based
Homo sapiens [29] = organism: Homo sapiens; experiment: Upregulation of PLOD2 mRNA level in human M2025 cells by SYBR-green dye based qRT-PCR analysis; type: functional, cell-based
[30] = Cytotoxicity against human M133 cells assessed as reduction in cell viability measured after 72 hrs by Celltiter-Glo luminescent assay; type: functional, cell-based
M34 [31] = experiment: Cytotoxicity against human M34 cells assessed as reduction in cell viability measured after 72 hrs by Celltiter-Glo luminescent assay; type: functional, cell-based; conditions: M34, 72 h
[32] = Cytotoxicity against human M24 cells assessed as reduction in cell viability measured after 72 hrs by Celltiter-Glo luminescent assay; type: functional, cell-based; conditions: M24, 72 h
Homo sapiens [33] = organism: Homo sapiens; experiment: Downregulation of NSUN5 mRNA level in human M193 cells by SYBR-green dye based qRT-PCR analysis; type: functional, cell-based
Homo sapiens [34] = organism: Homo sapiens; experiment: Upregulation of TMED7 mRNA level in human M2025 cells by SYBR-green dye based qRT-PCR analysis; type: functional, cell-based
[35] = Cytotoxicity against human M187 cells assessed as reduction in cell viability measured after 72 hrs by Celltiter-Glo luminescent assay; type: functional, cell-based
M34 [36] = experiment: Upregulation of TMED7 mRNA level in human M34 cells by SYBR-green dye based qRT-PCR analysis; type: functional, cell-based
[37] = Cytotoxicity against human M221 cells assessed as reduction in cell viability at 20 uM measured after 72 hrs by Celltiter-Glo luminescent assay relative to control; type: functional
[38] = Cytotoxicity against human M193 cells assessed as reduction in cell viability at 20 uM measured after 72 hrs by Celltiter-Glo luminescent assay relative to control; type: functional
[39] = Chemosensitization activity in human M221 cells assessed as reduction in cell viability at 20 uM measured after 72 hrs in presence of 0.8 mM sodium valproate by Celltiter-Glo luminescent assay relative to control; type: functional
[40] = Chemosensitization activity in human M193 cells assessed as reduction in cell viability at 20 uM measured after 72 hrs in presence of 0.8 mM sodium valproate by Celltiter-Glo luminescent assay relative to control; type: functional
[41] = Chemosensitization activity in human M193 cells assessed as reduction in cell viability at 20 uM measured after 72 hrs in presence of 6 mM sodium valproate by Celltiter-Glo luminescent assay relative to control; type: functional
[42] = Synergistic cytotoxicity against human M221 cells assessed as combination index at 20 uM measured after 72 hrs in presence of 0.05 mM sodium valproate by Celltiter-Glo luminescent assay based Chou-Talalay method; type: functional
[43] = Synergistic cytotoxicity against human M221 cells assessed as combination index at 20 uM measured after 72 hrs in presence of 0.2 mM sodium valproate by Celltiter-Glo luminescent assay based Chou-Talalay method; type: functional
[44] = Synergistic cytotoxicity against human M221 cells assessed as combination index at 20 uM measured after 72 hrs in presence of 0.8 mM sodium valproate by Celltiter-Glo luminescent assay based Chou-Talalay method; type: functional
Homo sapiens [45] = organism: Homo sapiens; experiment: Downregulation of NSUN5 mRNA level in human M2025 cells by SYBR-green dye based qRT-PCR analysis; type: functional, cell-based
M34 [46] = experiment: Upregulation of PLOD2 mRNA level in human M34 cells by SYBR-green dye based qRT-PCR analysis; type: functional, cell-based
Homo sapiens [47] = organism: Homo sapiens; experiment: Upregulation of PLOD2 mRNA level in human M433 cells by SYBR-green dye based qRT-PCR analysis; type: functional, cell-based
[48] = Synergistic cytotoxicity against human M193 cells assessed as combination index at 20 uM measured after 72 hrs in presence of 4 mM sodium valproate by Celltiter-Glo luminescent assay based Chou-Talalay method; type: functional
[49] = Cytotoxicity against human M77 cells assessed as reduction in cell viability measured after 72 hrs by Celltiter-Glo luminescent assay; type: functional, cell-based
Homo sapiens [50] = organism: Homo sapiens; experiment: Cytotoxicity against human M221 cells assessed as reduction in cell viability at 50 to 800 nM measured after 72 hrs by Celltiter-Glo luminescent assay; type: functional, cell-based
Homo sapiens [51] = organism: Homo sapiens; experiment: Cytotoxicity against human M193 cells assessed as reduction in cell viability at 0.8 to 6 mM measured after 72 hrs by Celltiter-Glo luminescent assay; type: functional, cell-based

CSc1nc(Nc2cccc(Cl)c2)c2cnn(CCc3ccccc3)c2n1
0.681: CI [43]
0.696: CI [26]
92%: Activity [39]
55%: Activity [37]
0.766: CI [42]
0.76: CI [48]
5.05 to 7.05: pIC50 [1] | pIC50 [8] | pIC50 [10] | pIC50 [12] | pIC50 [14] | pIC50 [16] | pIC50 [19] | pIC50 [24] | pIC50 [25] | pIC50 [28] | pIC50 [30] | pIC50 (M34 [31]) | pIC50 [32] | pIC50 [35] | pIC50 [49]
84%: Activity [2] | Activity [9]
89%: Activity [41]
0.835: CI [17]
47%: Activity [38]
active: Activity (M34 [3]) | Activity (Homo sapiens [4]) | Activity (Homo sapiens [5]) | Activity (Homo sapiens [6]) | Activity (Homo sapiens [7]) | Activity (Homo sapiens [13]) | Activity (Homo sapiens [15]) | Activity (Homo sapiens [18]) | Activity (Homo sapiens [20]) | Activity (Homo sapiens [21]) | Activity (Homo sapiens [22]) | Activity (Homo sapiens [23]) | Activity (M34 [27]) | Activity (Homo sapiens [29]) | Activity (Homo sapiens [33]) | Activity (Homo sapiens [34]) | Activity (M34 [36]) | Activity (Homo sapiens [45]) | Activity (M34 [46]) | Activity (Homo sapiens [47])
75%: Activity [11] | Activity [40]
0.603: CI [44]

CCCC(CCC)C(=O)O
inactive: Activity (Homo sapiens [50]) | Activity (Homo sapiens [51])
